{"source": "patent US20250288584A1", "about": "“COMBINATIONS COMPRISING POSITIVE ALLOSTERIC MODULATORS OR ORTHOSTERIC AGONISTS OF METABOTROPIC GLUTAMATERGIC RECEPTOR SUBTYPE 2 AND THEIR USE” (JANSSEN PHARMACEUTICA NV, priority 2014, published 2025)", "origin": "cited, not measured here", "tested_on": "MES seizures", "conditions": "in vivo; cited from earlier work"}
{"smiles": "CC[C@@H](C(N)=O)N1CCCC1=O", "note": "[LEV, (S)-2-(2-oxopyrrolidin-1-yl) butanamide, reference compound]", "values": [{"measurement": "activity in maximal electroshock (MES) seizure test", "value": "no activity"}]}
